The subject of this experiment is P. falciparum 3D7 growth, pLDH absorbance. Kind of experiment: P. falciparum 3D7 growth inhibition, dose response, strain 3D7 (AID 2305).

The record followed here is PubChem BioAssay AID2305 (GlaxoSmithKline (GSK), 2010).

`COc1ccc(NC(=O)C2c3ccccc3C(=O)N(CC(C)C)C2c2cccs2)cc1OC` (stereo not drawn) returned a 50% inhibitory concentration (IC50) of 0.2 µM. Next, `CN(C)c1ccc(C=Cc2nc(=O)c3ccccc3o2)cc1`: 0.04 µM; `NCC(=O)c1cc2c(cc1N)OCCO2`: 1.36 µM. Next, `O=C(Nc1cccc(OC2CCN(Cc3ccccc3)CC2)c1)c1ccc([N+](=O)[O-])cc1`: 0.66 µM; `Cc1cccc2[nH]c(-c3cccc(-c4cccc(NC(=O)c5ccc(C(N)=O)cc5)c4)c3)nc12`: 0.32 µM; `CCNc1cc(C(=O)N[C@@H](Cc2ccccc2)[C@H](O)CN[C@@H](C)c2cccc(OC)c2)cc(N2CCCC2=O)c1`: 0.77 µM.

`CN1CCN(Cc2ccc(-c3ccc4c(Nc5cc(O)c(F)cc5Cl)ccnc4c3)o2)CC1`: the IC50 was 0.13 µM. This IC50 lies about 5.9-fold lower than the previous one. `COc1cccc2sc(Nc3nc(-c4ccccn4)cs3)nc12` displayed an IC50 of 0.8 µM. To `CC(=O)N[C@H](C(=O)Nc1ccc(-c2cccc(-c3nc4c(C)cccc4[nH]3)c2)cc1)C(C)C` belongs 1.09 µM; to `Cc1[nH]c(C)c(-c2ccc(-c3ccc(Cl)cc3)nc2)c(=O)c1Cl`, 0.11 µM. Next, `COc1cc(CCNc2nc(NCc3cccc4ccccc34)nc(N3CCC(N)CC3)n2)ccc1O`: 0.79 µM. `CC1CN(Cc2ccccc2)CCN1c1ccc(NC(=O)c2ccc(F)cc2)cc1` (stereo not drawn): the half-inhibitory concentration (IC50) amounted to 1.01 µM. To `CCOc1ccc2c(NN=Cc3ccc(F)cc3)cc(C)nc2c1` belongs 0.58 µM.

As to `COc1ccc(C(=O)CCC(=O)N(Cc2ccc(-c3ccc(CNCCc4ccc(S(C)(=O)=O)cc4)cn3)cc2)Cc2ccc3c(c2)OCO3)cc1F`, the IC50 was 0.94 µM. Next, `FC(F)(F)c1ccc2c(NCCCNc3ccnc4cc(C(F)(F)F)ccc34)ccnc2c1`: 0.03 µM; `COc1cccc2[nH]c(NCCCNCc3cc(Br)cc(Br)c3)nc12`: 0.95 µM.

`CC1(C)N=C(N)N=C(N)N1OCCCNC(=O)c1ccc(C(=O)NCCCON2C(N)=NC(N)=NC2(C)C)cc1` yielded an IC50 of 0.02 µM. With `COc1ccc(CNCCc2cccs2)cc1-c1ccc(S(=O)(=O)NCCN2CCCC2)cc1`, the IC50 was 0.65 µM. On to `COc1cc(C=CC(=O)N2CCN(Cc3cccc(C)c3)CC2)ccc1OCc1c(C)noc1C`, for which the concentration for half-maximal inhibition (IC50) was 1.03 µM. Against the preceding molecule, the IC50 is about 1.6-fold higher. In the case of `CC(=O)N(Cc1cccc(-c2cccc(CNCc3ccc4c(c3)OCO4)c2)c1)C1CCN(Cc2ccccc2)CC1`, the IC50 amounted to 0.84 µM. To `O=S(=O)(Nc1cccc(CCN2CCC(N3CCCCC3)CC2)c1)c1cccc2ccccc12` belongs 0.94 µM; to `CC(=O)Nc1ccc(NC(=O)c2cc(-c3ccc(C)cc3O)n[nH]2)cc1`, 0.49 µM. To `C[C@H](NC(=O)[C@H](Cc1ccccc1)NC(=O)OC(C)(C)C)C(=O)N[C@@H](CC1CCCCC1)C(O)CN` (stereo partly drawn) belongs 0.73 µM. To `Cc1cc(N[C@@H](Cc2ccccc2)C(=O)Nc2ccccc2)nc(NCCc2ccc(F)cc2)n1` belongs 0.86 µM; to `Cc1ccc(Nc2nc(C)cc(NC3CCCC3)n2)cc1`, 0.29 µM; to `C[C@H](Cc1ccc(C(=O)OC(c2ccccc2)c2ccccc2)cc1)NC[C@H](O)c1ccccc1`, 0.18 µM. `CCN(CC)CCNC(=O)c1ccc(NC(=O)c2ccc(-c3cc(NC(=O)CC4CCCC4)ccc3C)cc2)cc1` returned an IC50 of 0.56 µM. Against the preceding molecule, the IC50 is about 3.1-fold higher.

`Cc1cccc2[nH]c(-c3cccc(-c4ccc(NC(=O)Nc5cccc(C#N)c5)cc4)c3)nc12` returned a half-maximal inhibitory concentration (IC50) of 0.19 µM. Next, `CN1CCN(c2nsc3ccc(-c4ccc(NC(=O)Nc5ccccc5)cc4)cc23)CC1`: 0.18 µM; `CCNc1cc(C(=O)N[C@@H](Cc2ccccc2)[C@H](O)CNC(C)(C)CCCC(C)C)c(F)c(N2CCCS2(=O)=O)c1`: 0.2 µM. For `COc1cc(Nc2ccnc3ccc(C(F)(F)F)cc23)cc(OC)c1OC`, the IC50 came to 0.7 µM. To `CN1CCC(NC(=O)c2cccc(Nc3cc(Nc4cccc(Br)c4)ncn3)c2)CC1` belongs 1.01 µM; to `COc1ccc2nccc([C@@H](O)CN3CCC(NCc4cc5cc(OC(F)(F)F)ccc5[nH]4)CC3)c2c1`, 0.13 µM.

`Cc1cccc2[nH]c(-c3ccc(-c4cccc(CNCCc5ccncc5)c4)cc3)nc12` showed a half-maximal inhibitory concentration (IC50) of 0.2 µM.

For `COc1cc(C=NNc2cc(C)nc3c(OC)cccc23)cc(OC)c1OC`, the IC50 was determined as 0.89 µM. To `c1ccc(-c2csc(Nc3nc4cc5c(cc4s3)OCO5)n2)nc1` belongs 0.58 µM; to `COc1cc(C=Cc2ccc3ccccc3n2)cc(Br)c1OCC(=O)N(C)C`, 1.1 µM.

As for `COc1ccc(CN(C)CCCOc2ccc(NC(=O)c3cccc4c(=O)c5cccc(C)c5[nH]c34)cc2)cc1OC`, the IC50 was 0.89 µM.

In the case of `CCCc1cc(Cc2cnc(N)nc2N)cc(CCC)c1OC`, the 50% inhibitory concentration (IC50) was determined as 0.89 µM. To `O=S(=O)(NCCN1CCCC1)c1ccc(-c2ccc(CNC3Cc4ccccc4C3)cc2)cc1` belongs 0.66 µM; to `O=C(NCCCCN1CCC(c2c[nH]c3ccccc23)CC1)c1ccc(-c2ccc(C(F)(F)F)cc2)cc1`, 0.8 µM; to `Cc1[nH]c(C)c(-c2ccc(OCCCc3ccccn3)cc2)c(=O)c1Br`, 0.21 µM. Next, `CC[C@H](N=C(Nc1ccc(C#N)cc1O)Nc1cccc(Cl)c1Cl)c1ccccc1`: 0.82 µM; `Cc1cc(N2CCCC2)nc(Nc2ccc(NC(=O)C3CCCC3)cc2)n1`: 1.11 µM; `Cc1cc(NCC(c2ccccc2)c2ccccc2)nc(NCc2ccc(C(F)(F)F)cc2)n1`: 0.25 µM.

In turn, `CC(C)c1ccc(CN(C)CCCCNC(=O)c2ccc(NC(=O)c3ccc(Cl)cc3)cc2)cc1` registered an IC50 of 0.99 µM. This IC50 is about 4-fold higher than that of the molecule before. Next, `Cc1ccc(-c2cc(C(=O)Nc3ccc(S(=O)(=O)N4CCCC(C)C4)cc3)[nH]n2)c(O)c1` (stereo not drawn): 0.28 µM; `O=C(N[C@H]1CCCC[C@H]1C(=O)O)c1ccccc1`: 0.78 µM. Next, `c1ccc(CN2CCN(CCNc3c4ccccc4nc4ccccc34)CC2)cc1`: 0.88 µM; `CN(C)S(=O)(=O)c1ccc(Nc2nc(NCCC3C=NC=N3)nc3cc[nH]c(=O)c23)cc1` (stereo not drawn): 0.93 µM; `Cc1cc(Nc2ccnc(-c3ccc(Cl)cc3)n2)ccn1`: 1.04 µM.

`O=C(CCCCCNC(=O)c1ccc(O)c(-c2cccc(C(F)(F)F)c2)c1)NCCN1CCCCC1` displayed an IC50 of 0.89 µM. The IC50 values of the last two molecules are within 1.5-fold of each other. The molecule `COc1cc(SC)c(Br)cc1-c1nc2ccncc2[nH]1` registered a half-inhibitory concentration (IC50) of 1.1 µM. To `O=C(NC1CCN(Cc2ccccc2)C1)c1ccc(Nc2ccc(Br)cc2)nc1` (stereo not drawn) belongs 1.08 µM; to `O=C(NCc1cccc(F)c1)c1ccc(O)c(-c2cc(Cl)cc(Cl)c2)c1`, 0.56 µM; to `CN(C)c1ccc(C=C2SC(=N)N(c3nccs3)C2=O)cc1`, 0.46 µM. To `COc1ccc2ncc(C#N)c(CCN3CCC(NCc4cnc5c(c4)OCCO5)CC3)c2n1` belongs 0.6 µM; to `COC(=O)c1ccc(-c2ccc(-c3cccnc3)cc2C)cc1`, 0.66 µM; to `COCCNCc1nc(-c2ccc3c(Nc4ccc(F)c(O)c4)ccnc3c2)cs1`, 0.69 µM.

Regarding `COc1ccc2nccc([C@@H](O)CN3CCC(NCCOc4ccccc4[N+](=O)[O-])CC3)c2c1`, the IC50 was 0.38 µM. `CCNC(=O)N1CCN(c2nc(-c3ccccc3)nc(COC)c2Cc2ccc(C)cc2)CC1` yielded a concentration for half-maximal inhibition (IC50) of 0.99 µM. This IC50 lies about 2.6-fold higher than the previous one. To `CCCC(=O)Nc1ccc(Cl)c(NC(=O)COc2cc(C)ccc2C(C)C)c1` belongs 0.93 µM; to `Cc1ccc(C(=O)Nc2ccc(F)c(F)c2F)cc1S(=O)(=O)N1CCCCC1`, 0.76 µM; to `Cc1ccccc1C(=O)NC(NC(=S)Nc1ccc([N+](=O)[O-])cc1)C(Cl)(Cl)Cl` (stereo not drawn), 0.74 µM. To `O=C(/C=C/c1ccc(Cl)cc1)NCCCCCN1CCC(C(=O)Nc2ccc(Cl)c(Cl)c2)CC1` belongs 0.77 µM. Next, `Cc1ccc2c(c1)C1(CC(=O)N(CCc3scnc3C)C1=O)C(=O)N2Cc1ccccc1` (stereo not drawn): 1.25 µM; `CCn1ccc2c(N3CCCS3(=O)=O)cc(C(=O)N[C@@H](Cc3ccccc3)[C@H](O)CNC(C)(C)CCCC(C)C)cc21`: 0.49 µM; `O=C(Nc1ccccc1)c1nn(CCCN2CCC(N3CCCC3)CC2)cc1-c1ccc(Cl)c(Cl)c1`: 0.24 µM. As for `CCCNC(=O)c1cncc(-c2cccc(CNC3Cc4ccccc4C3)c2)c1`, the concentration for half-maximal inhibition (IC50) amounted to 0.8 µM. Regarding `Cn1c(NC(=O)c2ccc(CNC(=O)c3ccc(O)c(-c4ccc(Cl)c(Cl)c4)c3)cc2)nc2ccccc21`, the IC50 was determined as 0.84 µM. Next, `COc1ccc2nccc([C@@H](O)CN3CCC(NC(=O)/C(=C/c4ccccc4)c4ccc(-c5ccccc5)cc4)CC3)c2c1`: 1.05 µM; `Cc1cccc2[nH]c(-c3ccc(-c4cccc(CNCCCN5CCCC5=O)c4)cc3)nc12`: 0.84 µM; `O=C(Nc1ccc(OC2CCN(Cc3ccsc3)C2)c(Cl)c1)c1ccc(F)cc1` (stereo not drawn): 0.94 µM.

The molecule `CCOC(=O)c1ccc(NC(=O)N[C@@H](Cc2ccccc2)C(=O)NC2CCN(Cc3ccc(O)cc3)C2)cc1` (stereo partly drawn) came in with a 50% inhibitory concentration (IC50) of 0.63 µM. To `O[C@H]1[C@H](OCc2ccc(-c3ccccc3)cc2)CC[C@@H]1N1CCCCC1` belongs 1.06 µM; to `Cc1c(CNCCCNc2cc(=O)c3ccccc3[nH]2)sc(/C=N/O)c1Br`, 1.08 µM. To `CN1CCN(c2cc(-c3cccnc3)nc(-c3ccncc3)n2)CC1` belongs 0.55 µM; to `COc1cc(OC)c(NC(=O)Nc2ccnc3ccccc23)cc1Cl`, 0.75 µM; to `CC(=O)Nc1cc(C(=O)Nc2ccc(C3=NCCN3)cc2)ccc1C(=O)Nc1ccc(C2=NCCN2)cc1`, 0.13 µM. To `CN(C)C1CCN(Cc2ccc(N3CCN(Cc4cccc5[nH]ccc45)CC3)nc2)CC1` belongs 1.53 µM; to `Cc1cc(NN=Cc2cccc(Cl)c2)c2ccccc2n1`, 0.26 µM. Turning to `CC1CCC2(CC1)N=C(N)N=C(N)N2OCc1ccc(Br)c2ccccc12` (stereo not drawn), the IC50 turned out to be 0.22 µM. Take `O=C(c1cc(OC(F)(F)F)ccc1O)N1CCN(c2ccccc2)CC1`: the 50% inhibitory concentration (IC50) is 1.05 µM. The molecule `COc1ccc2nccc([C@@H](O)CN3CCC(NCC4COc5ccccc5O4)CC3)c2c1` (stereo partly drawn) yielded a concentration for half-maximal inhibition (IC50) of 0.25 µM. On to `COc1ccc(CN2CCC(CNCC(c3ccccc3)c3ccccc3)CC2)cc1`, for which the half-maximal inhibitory concentration (IC50) came out at 0.23 µM. The molecule `CN1CCN(c2ccc(Nc3c(C(N)=O)cnc4cc(-c5ccoc5)ccc34)cc2)CC1` gave an IC50 of 0.81 µM.

The molecule `Cc1ccc(C2(CN3CCC(NC(=O)c4ccn[nH]4)CC3)CCCCC2)cc1` gave an IC50 of 0.22 µM.

The molecule `COc1ccc2nccc([C@@H](O)CN3CCC(NCc4cc5cccnc5[nH]4)CC3)c2n1` came in with an IC50 of 0.96 µM.

As a reminder, the IC50 is the concentration that gives 50% inhibition.
